Series [1] concerns hematopoietic stem cells CD41:GFP accumulated in the CHT. The series is classed as in vivo. Conditions: for reduction of the number of HSCs accumulated in CHT: 24 h; for invasion of CHT by CD41:GFP cells / number of cells having colonized CHT, in words: thiazide compounds test, 10 μM or 25 μM, FIG. 9. The text has this:
A method for determining whether a molecule is capable of treating cancer in the pre-metastatic state has been described in international application WO 2011/007259. This method consists in isolating molecules capable of inhibiting the emergence of hematopoietic stem cells from the floor of the aorta without cell division, but by endothelial-to-hematopoietic transition. This emergence involves the loss of cell polarity of emerging cells, the loss of cellular junctions with these neighboring cells and the acquisition of migratory properties. This model is used because it mimics each stage of the epithelial-mesenchymal transition, the first stage of cancer metastasis. The endothelial-to-hematopoietic transition takes place in a region of the embryo called Aorta-Gonad-Mesonephros (AGM).
The colonization of hematopoietic tissues by hematopoietic stem cells mimics the appearance and/or progression of a metastatic cancerous tumor since it involves intravasation, extravasation, or the migration of HSCs following a gradient of SDF-1. The first colonized tissue is caudal hematopoietic tissue (CHT).
In order to evaluate the inhibition of the endothelial-to-hematopoietic transition, transgenic CD41:GFP (green fluorescent protein) embryos are used. HSCs express GFP under the control of the CD41 promoter, which allows them to be monitored in vivo under a fluorescence microscope. The read-out is the number of hematopoietic stem cells CD41:GFP accumulated in the AGM (mimicking the initiation of the metastatic process) and/or in the CHT of the zebrafish embryo (mimicking the progression of the metastatic process). The accumulation of CD41:GFP cells in CHT implies that each cell has made an endothelial-to-hematopoietic transition, intravasation, extravasation at the CHT level, has settled in a stromal niche and has proliferated.
The Tg transgenic zebrafish line (CD41:GFP) is maintained in accordance with the protocols described by the Ethical Committee for Animal Experimentation. The fish are kept at a temperature of 28° C. and their development stage is determined as before. The molecules are tested on zebrafish embryos at the 25 hpf stage. The embryos are decorticated and transferred to a 96-well plate (1 embryo/well) containing the test compounds in a final volume of 100 μl of the embryonic growth medium (60 μg salt for 1 ml H2O). […] The treated embryos are incubated for 24 hours in an incubator at 28° C.
The embryos are imaged with a plate reader after being anesthetized with 0.16% tricaine (ethyl-3-aminobenzoate). A quantification of the number of fluorescent cells (CD41:GFP) accumulated in the CHT is carried out.
Althiazide was tested on the zebrafish embryo according to the method previously described in the international application WO 2011/007259. This method consists in isolating molecules capable of inhibiting the emergence of hematopoietic stem cells from the floor of the aorta without cell division, but by endothelial-to-hematopoietic transition. This emergence involves the loss of cell polarity of emerging cells, the loss of cellular junctions with these neighboring cells and the acquisition of migratory properties. This model is used, in the context of the invention, because it mimics each of the stages of the epithelial-to-mesenchymal transition, the first stage of the cancerous metastasis. The endothelial-to-hematopoietic transition takes place in a region of the embryo called Aorto-Gonado-Mesonephros (AGM).
The colonization of hematopoietic tissues by hematopoietic stem cells mimics the appearance and/or progression of a metastatic tumor since it involves intravasation, extravasation, or the migration of HSCs following a gradient of SDF1. The first colonized tissue is caudal hematopoietic tissue (CHT). This physiological process is considered, in the context of the invention, as representative of the appearance and/or progression of a metastatic tumor. […]

Series [2] is described as follows: Stability test of enantiomers: degradation followed by UHPLC reverse phase purity. It is filed as physicochemical. The procedure: The analysis of the reverse phase purity of the products to be tested was carried out by an ultra-high pressure liquid chromatography (UHPLC) reverse phase chromatography technique on a Waters UPLC2 liquid chromatograph, marketed by Waters. The mobile phase of the separation varies during the method according to the protocol of Table 1.
(§1) The stability tests of the enantiomers were performed by comparing the racemization and the degradation of the stored samples either at room temperature without protection against light, or under controlled temperature at 5° C. and protected from light.
(§2) The stored products are analyzed regularly (T=0, 1 h, 2 h, 3 h, 6 h, 24 h) to follow the evolution of the racemization of enantiomers.
(§3) After separation by SFC acetonitrile version 2, 1.5 mg of EV-VZWOO 1-070-005 and 2.4 mg of EV-VZWOO 1-070-006 are removed for stability testing.
(§4) Sample EV-VZWOO 1-070-005 is stored at a temperature of 5° C. under light protection conditions. Sample EV-VZWOO 1-070-006 is stored at room temperature on the bench without protection against light.

Series [3] in a line: Stability test of enantiomers: racemization followed by SFC chiral purity analysis. It is filed as physicochemical. Here is the method: The analysis of the chiral purity of the products to be tested was carried out by a supercritical fluid separation (SFC) technique on a Berger prep chromatograph, marketed by Thar Instruments. The mobile phase of the separation consists of a mixture of methanol added. 0.01% acetic acid and CO2 in a 20/80 ratio. The stationary phase chosen is a Chiralpak IC […] column, 250 mm by 20 mm, marketed by sigma aldrich. The injection rate is 50 ml per minute, at 40° C. under a pressure of 100 bar. The product to be analyzed is dissolved in methanol supplemented with 0.01% acetic acid, with a concentration of 1 mg/ml. 10 μl of this product is injected. The detector is a UV detector with a wavelength greater than 275 nm.
as §1, §2, §3, §4

For a further series, the system named is MDA-MB-231 cells. The experiment in a line: Cytotoxicity potentiation test: MTT cell viability of MDA-MB-231 cells, doxorubicin +/- althiazide. The series is classed as cell-based, human. Conditions: Homo sapiens, MDA-MB-231, 24 h, 24 h, 1% O2. Here is the method: The cell cultures are carried out on human breast cancer epithelial cell lines MDA-MB-231 (HTB-26™), resulting from metastases present in a pleural effusion of a patient with a mammary adenocarcinoma. This line is used as a triple negative cancer cell model (no expression of ER-type nuclear estrogen receptors, nuclear progesterone receptors or overexpression of the oncogene encoding HER2 protein (Human Epidermal Growth factor Receptor-2).
The cell viability is determined via the IC50 index, measured by the MTT technique (2-(4,5-dimethyl-2-thiazolyl)-3,5-diphenyl-2H-tetrazolium bromide) (Mosmann, 1983). This colorimetric test is based on the reduction of yellow tetrazolium salts into insoluble purple formazan crystals in aqueous solution. The spectrophotometric measurement of the absorbance at 570 nm is directly proportional to the number of viable cells
The cells were seeded in 96-well plates at a density of 25,000 cells per well. After 24 h of culture at 37° C., 5% CO2 and 1% O2, the medium was renewed and supplemented with increasing doses of doxorubicin+/−althiazide. Cells were incubated for 24 h at 37° C., 5% CO2 and 1% O2. The MDA-MB-231 cells were washed and then incubated for 1 hour at 37° C. with 100 μl of a 0.5 mg/ml MTT solution prepared in culture medium. The formazan crystals were dissolved in […] and the absorbance measured at 570 nm using the Tecan Sunrise spectrophotometer. The IC50 was determined using the Graphpad Prism 5.0 software. The treatments were carried out in triplicate and the manipulation was carried out 5 times.
The tests are carried out in cell culture in 96-well plates, on the cell line MDA-MB-231. The MDA-MB-231 cells are seeded in 96-well plates at a density of 10,000 cells and incubated 24 h at 37° C., 5% CO2 and 1% O2. The medium is then renewed and added with increasing concentrations of doxorubicin+/−100 μM althiazide. The cells are incubated for an additional 24 hours at 37° C., 5% CO2 and 1% O2. Treatments were made in triplicas and the experiment was repeated 5 times.
A cell viability test is then performed according to the method described in Materials and methods.
Results are normalized to the control condition (FIG. 12)

Where [4] appears, read: 10 μM (FIG. 3; b188 prints 10 μl), vs reference embryos treated with DMSO.
Where [5] appears, read: 0 h, stored at 5° C. protected from light.
Where [6] appears, read: 24 h, stored at 5° C. protected from light.
The mark [7] stands for this setting: 1 h, stored at 5° C. protected from light.
[8] abbreviates: 2 h, stored at 5° C. protected from light.
The mark [9] stands for this setting: 3 h, stored at 5° C. protected from light.
Setting [10] is: 6 h, stored at 5° C. protected from light.
The mark [11] stands for this setting: 0 h, stored at room temperature without protection against light.
The mark [12] stands for this setting: 24 h, stored at room temperature without protection against light.
The mark [13] stands for this setting: 1 h, stored at room temperature without protection against light.
Setting [14] is: 2 h, stored at room temperature without protection against light.
[15] abbreviates: 3 h, stored at room temperature without protection against light.
Where [16] appears, read: 6 h, stored at room temperature without protection against light.

Each structure is given as a SMILES string. Counter-ions that a name gives are not always drawn. Like-named read-outs stand apart in the source and are kept apart here.

For the compound `Cc1ccccc1N1C(=O)c2cc(S(N)(=O)=O)c(Cl)cc2NC1C` (stereo not shown) [Metolazone, reference compound], in series [1] (setting [4]), the “reduction of the number of HSCs accumulated in CHT” value (“reduction” for short) was “do not cause a decrease”.

`NS(=O)(=O)c1cc(C2(O)NC(=O)c3ccccc32)ccc1Cl` (stereo not shown) [Chlortalidone, reference compound]: the “reduction” value in series [1] (setting [4]) was “do not cause a decrease”.

With `C[N+]1(CCCCC[N+]2(C)CCCC2)CCCC1.O=C([O-])C(O)C(O)C(=O)O.O=C([O-])C(O)C(O)C(=O)O` [Pentolinium-bitartrate, reference compound], the “reduction” value in series [1] (setting [4]) is “do not cause a decrease”.

In the case of `C=CCSC[C@@H]1Nc2cc(Cl)c(S(N)(=O)=O)cc2S(=O)(=O)N1` [AZ(A)], the “invasion of CHT by CD41:GFP cells / number of cells having colonized CHT, in words” value in series [1] is “further reduce”. In addition, the UHPLC Pureté en phase inverse came to 99.9% in series [2] (setting [5]) and 94.9% in series [2] (setting [6]). For the same compound, the “SFC AZ(A) (%)” value in series [3] (setting [5]), in series [3] (setting [7]), in series [3] (setting [8]), in series [3] (setting [9]), in series [3] (setting [10]) and in series [3] (setting [6]) was 100% each time. Besides, the “SFC AZ(B) (%)” value in series [3] (setting [5]), in series [3] (setting [7]), in series [3] (setting [8]), in series [3] (setting [9]), in series [3] (setting [10]) and in series [3] (setting [6]) was 0% throughout.

With `NNc1nncc2ccccc12` [Hydralazine-hydrochloride, reference compound], the “reduction” value in series [1] (setting [4]) was “do not cause a decrease”.

In the case of `NS(=O)(=O)c1cc2c(cc1Cl)NCNS2(=O)=O` [Hydrochlorothiazide, reference compound], the “reduction” value in series [1] (10 µM) turned out to be 20%.

For `COc1cccc2c1C(=O)c1c(O)c3c(c(O)c1C2=O)C[C@@](O)(C(=O)CO)C[C@@H]3O[C@H]1C[C@H](N)[C@H](O)[C@H](C)O1` [doxorubicin, reference compound], the figures for the half-maximal inhibitory concentration (IC50) in the series with MDA-MB-231 cells (doxorubicin + 100 μM althiazide) and in the series on MDA-MB-231 cells (doxorubicin alone) were 3.32 µM and 6.02 µM, respectively.

With `C=CCSC[C@H]1Nc2cc(Cl)c(S(N)(=O)=O)cc2S(=O)(=O)N1` [AZ(B)], the “invasion of CHT by CD41:GFP cells / number of cells having colonized CHT, in words” value in series [1] is listed as “further reduce”. Also, the UHPLC Pureté en phase inverse in series [2] (setting [11]) was 100%; in series [2] (setting [12]), 90.5%. In addition, the “SFC AZ(A) (%)” value turned out to be 0.6% in series [3] (setting [11]); 1.2% in series [3] (setting [13]); 1.2% in series [3] (setting [14]); 1.7% in series [3] (setting [15]); 3% in series [3] (setting [16]); 9.7% in series [3] (setting [12]). Moreover, the “SFC AZ(B) (%)” value is 99.4% in series [3] (setting [11]); 98.8% in series [3] (setting [13]); 98.8% in series [3] (setting [14]); 98.3% in series [3] (setting [15]); 97% in series [3] (setting [16]); 90.3% in series [3] (setting [12]).

Usually IC50 stands for the point on the concentration scale where inhibition reaches its midpoint.

The record behind these values is US20230137849A1, “USE OF A COMPOUND OF THE DIURETICS CLASS FOR TREATING CANCER” (AZELEAD, priority 2017, published 2023).
